The text below walks through data of patent US20200247794A1, “PHARMACOPHORES, COMPOUNDS AND METHODS HAVING APPLICATION IN THE TREATMENT OF CANCER THROUGH INHIBITION OF CYP17A1 AND CYP19A1” (MANGOSUTHU UNIVERSITY OF TECHNOLOGY, priority 2015, published 2020).

What is called pIC50 is the IC50 on a negative log10 scale, so that one unit is a factor of ten.

One data set has as its target T1, CYP1A2 (Homo sapiens, UniProt P05177).
T1 construct: purchased Cypex, Dundee CYP/XG001, Batch XG001001; host or cells: E. coli
T1 sequence (P05177 1-516): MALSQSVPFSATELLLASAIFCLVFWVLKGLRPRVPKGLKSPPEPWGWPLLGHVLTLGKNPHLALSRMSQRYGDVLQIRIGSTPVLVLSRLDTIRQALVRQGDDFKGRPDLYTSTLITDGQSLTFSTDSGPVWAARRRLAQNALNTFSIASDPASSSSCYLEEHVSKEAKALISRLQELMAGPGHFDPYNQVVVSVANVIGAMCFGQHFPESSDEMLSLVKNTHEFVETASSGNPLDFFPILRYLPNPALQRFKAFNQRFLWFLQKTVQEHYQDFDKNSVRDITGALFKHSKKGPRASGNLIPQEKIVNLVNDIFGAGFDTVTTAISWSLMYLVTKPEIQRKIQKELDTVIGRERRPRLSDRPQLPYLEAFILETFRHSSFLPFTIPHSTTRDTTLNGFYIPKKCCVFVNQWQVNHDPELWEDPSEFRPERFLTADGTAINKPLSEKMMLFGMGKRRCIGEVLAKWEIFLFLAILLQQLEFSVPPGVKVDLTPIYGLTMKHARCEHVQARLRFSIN
In words: CYP inhibition, 5 CYP bactosome mix: CYP1A2 (tacrine). The data set is classed as in vitro ADME. Particulars: tacrine 0.5 μM.

For another data set, the target named is T2, CYP2C19 (Homo sapiens, UniProt P33261).
T2 construct: purchased Cypex, Dundee CYP/XG001, Batch XG001001; host or cells: E. coli
T2 sequence (P33261 whole entry): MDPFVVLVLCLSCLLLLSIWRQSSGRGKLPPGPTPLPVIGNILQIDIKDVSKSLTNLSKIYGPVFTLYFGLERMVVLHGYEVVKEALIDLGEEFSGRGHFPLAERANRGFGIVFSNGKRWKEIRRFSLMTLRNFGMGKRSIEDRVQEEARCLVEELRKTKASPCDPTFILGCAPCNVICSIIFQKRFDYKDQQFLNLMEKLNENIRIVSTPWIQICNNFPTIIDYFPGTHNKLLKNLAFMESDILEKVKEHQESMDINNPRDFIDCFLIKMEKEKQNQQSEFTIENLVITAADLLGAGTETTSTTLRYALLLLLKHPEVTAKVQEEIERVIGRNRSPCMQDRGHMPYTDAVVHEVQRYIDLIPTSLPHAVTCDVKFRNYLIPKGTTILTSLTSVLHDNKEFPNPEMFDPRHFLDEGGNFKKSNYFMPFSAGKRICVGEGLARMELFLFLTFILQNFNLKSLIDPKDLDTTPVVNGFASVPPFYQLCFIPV
The data set can be described thus: CYP inhibition, 5 CYP bactosome mix: CYP2C19 ((S)-mephenytoin). The data set is classed as in vitro ADME. To be noted: (S)-mephenytoin 40 μM.

Another data set concerns the target T3, CYP3A4 (Homo sapiens, UniProt P08684).
T3 construct: purchased Cypex, Dundee CYP/XG001, Batch XG001001; host or cells: E. coli
In words: CYP inhibition, 5 CYP bactosome mix: CYP3A4 (midazolam). The class given is in vitro ADME. To be noted: midazolam 2.5 μM.

The nature of a further data set: Solubility in DMSO. The class given is physicochemical.
In the next data set the target is T4, CYP2D6 (Homo sapiens, UniProt P10635).
T4 construct: purchased Cypex, Dundee CYP/XG001, Batch XG001001; host or cells: E. coli
T4 sequence (P10635 whole entry): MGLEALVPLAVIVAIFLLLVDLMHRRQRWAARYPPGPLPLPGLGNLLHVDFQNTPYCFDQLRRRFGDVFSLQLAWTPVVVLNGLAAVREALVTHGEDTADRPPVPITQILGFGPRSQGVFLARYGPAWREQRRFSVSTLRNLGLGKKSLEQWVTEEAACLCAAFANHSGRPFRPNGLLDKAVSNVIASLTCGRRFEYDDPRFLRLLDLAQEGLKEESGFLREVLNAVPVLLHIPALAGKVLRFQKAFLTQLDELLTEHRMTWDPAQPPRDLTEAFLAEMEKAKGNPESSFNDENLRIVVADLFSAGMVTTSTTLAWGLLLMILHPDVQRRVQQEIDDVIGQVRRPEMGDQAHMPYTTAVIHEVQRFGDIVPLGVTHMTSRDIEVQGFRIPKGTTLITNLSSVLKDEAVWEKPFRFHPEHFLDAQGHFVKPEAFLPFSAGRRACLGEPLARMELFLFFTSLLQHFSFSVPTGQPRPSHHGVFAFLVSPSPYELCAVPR
The data set can be described thus: CYP inhibition, 5 CYP bactosome mix: CYP2D6 (bufuralol). The class given is in vitro ADME. To be noted: bufuralol 10 μM.

Another data set concerns the target T5, CYP17A1 (Homo sapiens, UniProt P05093).
T5 sequence (P05093 1-508): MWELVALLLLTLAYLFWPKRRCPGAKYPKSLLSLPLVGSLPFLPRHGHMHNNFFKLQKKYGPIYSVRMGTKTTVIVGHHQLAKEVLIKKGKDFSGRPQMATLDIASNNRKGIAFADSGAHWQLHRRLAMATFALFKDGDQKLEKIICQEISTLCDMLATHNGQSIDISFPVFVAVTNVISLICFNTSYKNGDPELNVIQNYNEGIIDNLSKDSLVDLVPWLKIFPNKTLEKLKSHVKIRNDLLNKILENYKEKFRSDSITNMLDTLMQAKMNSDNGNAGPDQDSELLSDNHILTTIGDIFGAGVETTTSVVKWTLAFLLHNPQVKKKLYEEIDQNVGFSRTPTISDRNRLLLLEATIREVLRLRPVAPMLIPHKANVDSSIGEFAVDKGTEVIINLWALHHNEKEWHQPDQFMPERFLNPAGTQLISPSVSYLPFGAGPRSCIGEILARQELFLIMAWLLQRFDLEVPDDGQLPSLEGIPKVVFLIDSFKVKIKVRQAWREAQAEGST
In words: CYP17A1 inhibition (CYP17A1 bactosomes, progesterone substrate, LC-MS/MS). The data set is classed as biochemical. Further details: purchased Cypex, Dundee, UK; host or cells: bacterial membranes (bactosomes).

Data set [1] concerns CYP1A2, CYP2C9, CYP2C19, CYP2D6, and CYP3A4. The data set can be described thus: CYP inhibition against major 5 human liver CYPs (panel, summary in words). The data set is classed as in vitro ADME. Particulars: drug-drug interaction remark.
The next data set concerns the target T6, CYP2C9 (Homo sapiens, UniProt P11712).
T6 construct: purchased Cypex, Dundee CYP/XG001, Batch XG001001; host or cells: E. coli
The data set can be described thus: CYP inhibition, 5 CYP bactosome mix: CYP2C9 (diclofenac). The data set is classed as in vitro ADME. Particulars: diclofenac 2 μM.

A further data set has as its target T7, CYP19A1 (Homo sapiens, UniProt P11511).
T7 sequence (P11511 1-503): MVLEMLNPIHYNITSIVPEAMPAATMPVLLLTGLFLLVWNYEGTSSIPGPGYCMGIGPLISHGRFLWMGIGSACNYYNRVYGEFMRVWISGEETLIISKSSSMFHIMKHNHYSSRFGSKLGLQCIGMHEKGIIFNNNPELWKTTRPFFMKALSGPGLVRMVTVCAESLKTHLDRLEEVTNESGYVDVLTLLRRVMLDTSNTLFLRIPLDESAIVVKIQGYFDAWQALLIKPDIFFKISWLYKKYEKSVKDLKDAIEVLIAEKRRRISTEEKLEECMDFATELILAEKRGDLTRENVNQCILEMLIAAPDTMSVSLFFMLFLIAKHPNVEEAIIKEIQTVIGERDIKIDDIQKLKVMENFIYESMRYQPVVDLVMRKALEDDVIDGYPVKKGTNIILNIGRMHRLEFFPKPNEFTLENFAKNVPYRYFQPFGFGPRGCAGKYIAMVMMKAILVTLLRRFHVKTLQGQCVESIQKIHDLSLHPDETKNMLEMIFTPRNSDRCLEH
The data set can be described thus: CYP19A1 inhibition (CYP19/MFC High Throughput Inhibitor Screen Kit, fluorescence). The data set is classed as biochemical. Here is the method:
Test compounds and control inhibitors were prepared as stocks in either Acetonitrile or DMSO from the solid compound. Compounds were serially diluted in ½ log steps in the same solvent.
CYP19A1 inhibition experiments were performed using the CYP19/MFC High Throughput Inhibitor Screen Kit (Corning).
CYP19A1 reactions were performed in black 96 well-plates (Greiner) according to the manufacturer's instructions. […] Final organic solvent concentrations were either 4% (v/v) acetonitrile or 0.5% (v/v) Dimethyl sulfoxide. The plates were covered with self-adhesive film lids and incubated for 10 minutes at 37° C. Reactions were terminated by the addition of 75 μl Stop Solution (100 mM Tris base in acetonitrile: MilliQ water (80:20).
Fluorescence of 7-Hydroxy-4-trifluoromethylcoumarin (HFC) was measured on a SpectraMax® i3x (Molecular Devices) using 409 nm and 530 nm as excitation and emission wavelengths, respectively.
The CYP activities for each test compound/positive control inhibitor at each concentration were converted to % of control activity (CA). The LC-MS/MS peak responses (CYP metabolite peak area/internal standard peak area) for each test compound or positive control inhibitor were used and the response for each sample was expressed as a percentage of an uninhibited control (DMSO incubation). The data were then expressed as (log(CA/100-CA) and used to generate a pseudo-Hill plot, the slope and y axis intercept are used to calculate the IC50-value according to the following equation.

Structures are written as SMILES. pIC50: −log10 of the molar value. Read-outs that look alike come from different tables or passages of the source.

T3 sequence (P08684 whole entry): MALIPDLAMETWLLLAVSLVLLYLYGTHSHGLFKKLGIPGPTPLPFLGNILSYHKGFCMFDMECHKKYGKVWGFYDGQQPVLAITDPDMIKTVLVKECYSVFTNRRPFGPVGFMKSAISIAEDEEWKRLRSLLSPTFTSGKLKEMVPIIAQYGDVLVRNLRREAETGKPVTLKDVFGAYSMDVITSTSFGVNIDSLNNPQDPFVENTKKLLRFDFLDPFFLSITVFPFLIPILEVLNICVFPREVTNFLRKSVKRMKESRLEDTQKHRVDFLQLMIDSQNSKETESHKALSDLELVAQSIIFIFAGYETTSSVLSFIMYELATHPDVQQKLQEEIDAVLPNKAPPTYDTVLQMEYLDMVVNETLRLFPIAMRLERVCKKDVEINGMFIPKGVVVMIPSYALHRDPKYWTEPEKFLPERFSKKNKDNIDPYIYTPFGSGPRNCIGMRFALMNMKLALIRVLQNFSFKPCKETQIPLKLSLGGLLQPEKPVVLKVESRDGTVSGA
T6 sequence (P11712 whole entry): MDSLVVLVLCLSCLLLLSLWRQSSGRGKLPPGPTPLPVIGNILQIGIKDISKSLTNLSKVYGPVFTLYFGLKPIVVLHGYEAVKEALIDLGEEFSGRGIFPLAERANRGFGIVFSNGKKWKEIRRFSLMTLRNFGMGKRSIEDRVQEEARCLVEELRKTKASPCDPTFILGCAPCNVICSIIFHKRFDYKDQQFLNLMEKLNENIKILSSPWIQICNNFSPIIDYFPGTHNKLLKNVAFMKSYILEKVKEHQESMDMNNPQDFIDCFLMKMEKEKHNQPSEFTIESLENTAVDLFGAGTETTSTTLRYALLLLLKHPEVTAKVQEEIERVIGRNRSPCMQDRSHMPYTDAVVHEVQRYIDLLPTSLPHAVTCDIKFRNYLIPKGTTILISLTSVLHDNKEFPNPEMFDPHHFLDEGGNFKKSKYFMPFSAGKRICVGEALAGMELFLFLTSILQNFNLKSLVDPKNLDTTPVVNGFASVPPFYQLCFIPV
Procedure for CYP17A1: CYP17A1 inhibition was measured using 20 pmol/ml CYP17A1 bactosomes (Cypex, Dundee, UK) and 0.1 μM progesterone as a substrate and 1 mM NADPH in 50 mM potassium phosphate buffer pH 7.4 containing 5 mM magnesium chloride. Inhibitors were dissolved in DMSO and serially diluted in seven ½ log steps, final concentrations ranging from 50 μM to 50 nM. Reaction volume was 100 μl and final DMSO concentration was 1% (v/v). Reactions were started by the addition of NADPH and incubated at 37° C. for 20 minutes with shaking at 1800 rpm on a Bioshake IQ (Q-Instruments, Jena, Germany). Reactions were terminated by the addition of 200 μl methanol containing 1 μM tolbutamide as an internal standard.

Regarding `Cc1nc(SC(C(=O)c2c[nH]c3ccccc23)c2ccccc2)sc1CC(N)=O` (racemic) [Compound 3, 2-(2-{[2-(1H-indol-3-yl)-2-oxo-1-phenylethyl]sulfanyl}-4-methyl-1,3-thiazol-5-yl)acetamide], in the data set “Toxicity studies”, the safety profile entry was “reasonably good safety profiles”. The pIC50 on CYP1A2 was 4.90; on CYP2C19 it was 5.08; on CYP3A4, 5.57; against CYP2D6 it was 4.82; against CYP17A1 (20 pmol/ml bactosomes, 0.1 μM progesterone, 50 μM to 50 nM), less than 4.47. In addition, in the data set “Solubility in DMSO”, the “Soluble in DMSO” value is listed as “Yes”. The “inhibitory potency of CYP17A1 (in words)” value at CYP17A1 (summary of Table 2) is “micromolar levels”. Also, the “inhibition of metabolic CYP450 isoforms (in words)” value (from here on “inhibition”) in data set [1] is on record as “inhibit various CYP450 isoforms”.

For the molecule `Cc1cccc(C(=O)OCCOc2ccc(S(N)(=O)=O)cc2)c1N` [Compound 4, 2-(4-sulfamoylphenoxy)ethyl 2-amino-3-methylbenzoate], the negative-log IC50 (pIC50) against CYP2C9 was 4.80; on CYP2C19, 5.82; at CYP3A4, 5.48; on CYP19A1 it was 4.36. Besides, in data set [1], the “inhibition” value is given as “inhibit various CYP450 isoforms”.

Consider `O=C1COc2cc(NCc3cccc(C(=O)Nc4ccccc4O)c3)ccc2N1` [Compound 11, N-(2-hydroxyphenyl)-3-{[(3-oxo-3,4-dihydro-2H-1,4-benzoxazin-7-yl)amino]methyl}benzamide], for which the pIC50 on CYP2C9 was 5.40; against CYP1A2, 4.57; at CYP2C19, 5.12; against CYP3A4, 5.08; at CYP2D6, 5.57; on CYP19A1 (7.5 pmol/ml CYP19A1, 25 μM MFC, top concentration 50 μM (acetonitrile) or 25 μM (DMSO), read-out: CYP19A1 IC50), 5.07. Besides, the “inhibition” value in data set [1] is listed as “inhibit various CYP450 isoforms”.
